Reference: article PMC3310203 (Journal of Medicinal Chemistry, 2012)
pEC50, pKi: −log10 of the molar value. Entries after “also recorded” stand apart in the source; their conditions may differ. Where two headings read alike, the source gives them in different places.

How the values were obtained:
[1] = ATZ for comparison, cited from earlier work
HIV = test: In vitro anti-HIV activity in MT4 cells; type: cell-based; conditions: for times higher potency than 13a in the cell-based antiviral activity assay: fold versus 13a
HIV-1 protease = HIV-1 protease (Human immunodeficiency virus type 1 group M subtype B, UniProt P04585); test: HIV protease inhibition, fluorometric assay; type: biochemical; conditions: for pKi: Ki, fluorometric assay, pH 5.0, 30 °C, 5 µM substrate
Metabolic stability = type: in vitro ADME, human
Caco-2 cell = Caco-2 cell penetration assay; type: in vitro ADME
[2] = p-bromide inhibitors 13a and 19a compared

SMILES | activity in the cell-based antiviral assay (in words) (HIV) | activity in the enzyme assay (in words) (HIV-1 protease) | permeability in the Caco-2 study (in words) (Caco-2 cell) | other results
COC(=O)N[C@H](C(=O)N[C@@H](Cc1ccccc1)[C@@H](O)CN(Cc1ccc(-c2ccccn2)cc1)NC(=O)[C@@H](NC(=O)OC)C(C)(C)C)C(C)(C)C [ATZ, Atazanavir] |  |  |  | Clint ([1]; ref 23): 90 μL min^–1 mg^–1; Clint ([1]; ref 64): 140 μL min^–1 mg^–1
COC(=O)N[C@H](C(=O)NN(CC[C@@]1(Cc2ccccc2)C(=O)N([C@H]2c3ccccc3C[C@H]2O[Si](C)(C)C(C)(C)C)C[C@H]1O[Si](C)(C)C(C)(C)C)Cc1ccc(Br)cc1)C(C)(C)C [Compound 12a] | did not show any activity | did not show any activity; also recorded: did not show any inhibitory potency |  | 
COC(=O)N[C@H](C(=O)NN(CC[C@@]1(Cc2ccccc2)C(=O)N([C@H]2c3ccccc3C[C@H]2O[Si](C)(C)C(C)(C)C)C[C@@H]1O[Si](C)(C)C(C)(C)C)Cc1ccc(Br)cc1)C(C)(C)C [Compound 12d] | did not show any activity | did not show any activity; also recorded: did not show any inhibitory potency |  | 
COC(=O)N[C@H](C(=O)NN(CC[C@@]1(Cc2ccccc2)C(=O)N([C@H]2c3ccccc3C[C@H]2O)C[C@H]1O)Cc1ccc(Br)cc1)C(C)(C)C [Compound 13a] |  |  |  | pEC50 (HIV; Human immunodeficiency virus 1, MT4, antiviral activity, MT4 cells): > 6.00; pKi (HIV-1 protease): > 8.00; metabolic clearance (in words) (Metabolic stability): High metabolic clearance
COC(=O)N[C@H](C(=O)NN(CC[C@]1(Cc2ccccc2)C(=O)N([C@H]2c3ccccc3C[C@H]2O)C[C@H]1O)Cc1ccc(Br)cc1)C(C)(C)C [Compound 13b] | did not show any activity; also recorded: almost no inhibiting effect | did not show any activity; also recorded: almost no inhibiting effect |  | 
COC(=O)N[C@H](C(=O)NN(CC[C@]1(Cc2ccccc2)C(=O)N([C@H]2c3ccccc3C[C@H]2O)C[C@@H]1O)Cc1ccc(Br)cc1)C(C)(C)C [Compound 13c] | did not show any activity; also recorded: almost no inhibiting effect | did not show any activity; also recorded: almost no inhibiting effect |  | 
COC(=O)N[C@H](C(=O)NN(CC[C@@]1(Cc2ccccc2)C(=O)N([C@H]2c3ccccc3C[C@H]2O)C[C@@H]1O)Cc1ccc(Br)cc1)C(C)(C)C [Compound 13d] |  |  | good results | pKi (HIV-1 protease): > 8.00; metabolic clearance (in words) (Metabolic stability): High metabolic clearance
COC(=O)N[C@H](C(=O)NN(CC[C@@]1(Cc2ccccc2)C(=O)N([C@H]2c3ccccc3C[C@H]2O)C[C@H]1O)Cc1ccc(-c2cccnc2)cc1)C(C)(C)C [Compound 13g] |  |  | moderate permeability | times higher potency than 13a in the cell-based antiviral activity assay (HIV): 10
COC(=O)N[C@H](C(=O)NN(CC[C@@]1(Cc2ccccc2)C(=O)N([C@H]2c3ccccc3C[C@H]2O)C[C@@H]1O)Cc1ccc(-c2cccnc2)cc1)C(C)(C)C [Compound 13h] |  |  | moderate permeability | 
COC(=O)N[C@H](C(=O)NN(CC[C@@]1(Cc2ccccc2)C(=O)N([C@H]2c3ccccc3C[C@H]2O)C[C@H]1O)Cc1ccc(-c2ccncc2)cc1)C(C)(C)C [Compound 13i] |  |  |  | times higher potency than 13a in the cell-based antiviral activity assay (HIV): 10
COC(=O)N[C@H](C(=O)NN(CCC[C@@]1(Cc2ccccc2)C(=O)N([C@H]2c3ccccc3C[C@H]2O)C[C@H]1O)Cc1ccc(Br)cc1)C(C)(C)C [Compound 19a] |  |  | high permeability | fold loss of potency versus 13a (EC50) (HIV; [2]): 5; fold loss of potency versus 13a (Ki) (HIV-1 protease; [2]): 5
